According to ChEMBL document CHEMBL1909046, “DrugMatrix in vitro pharmacology data”:

How the values were obtained:
[1] = DRUGMATRIX: Phosphodiesterase PDE4 enzyme inhibition (substrate: [3H]cAMP + cAMP); settings: u-937; Not Active = under 50% inhibition at 10 µM
Cytochrome P450 1A2 = molecular target: T1, Cytochrome P450 1A2 (Homo sapiens, UniProt P05177); settings: bti-tn-5b1-4; also: in other assays of this panel Not Active means under 50% inhibition at 10 µM
T1 sequence (P05177 whole entry): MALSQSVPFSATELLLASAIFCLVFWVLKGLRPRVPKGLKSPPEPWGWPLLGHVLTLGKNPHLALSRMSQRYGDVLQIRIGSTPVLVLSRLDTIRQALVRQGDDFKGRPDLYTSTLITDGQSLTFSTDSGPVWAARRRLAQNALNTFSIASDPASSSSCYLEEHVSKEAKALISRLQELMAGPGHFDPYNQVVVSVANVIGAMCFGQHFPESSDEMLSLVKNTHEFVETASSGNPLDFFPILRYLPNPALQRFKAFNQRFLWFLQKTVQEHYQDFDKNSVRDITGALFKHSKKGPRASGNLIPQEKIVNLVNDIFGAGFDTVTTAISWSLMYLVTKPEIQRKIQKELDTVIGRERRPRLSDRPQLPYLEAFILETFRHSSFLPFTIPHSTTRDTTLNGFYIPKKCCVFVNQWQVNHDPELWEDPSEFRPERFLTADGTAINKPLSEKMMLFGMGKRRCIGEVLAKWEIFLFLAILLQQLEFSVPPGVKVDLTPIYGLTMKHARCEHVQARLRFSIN

[2] = molecular target: T2, Muscarinic acetylcholine receptor M4 (Homo sapiens, UniProt P08173); type: cell membranes, CHO-K1, Membrane; also: in other assays of this panel Not Active means under 50% inhibition at 10 µM
T2 sequence (P08173 whole entry): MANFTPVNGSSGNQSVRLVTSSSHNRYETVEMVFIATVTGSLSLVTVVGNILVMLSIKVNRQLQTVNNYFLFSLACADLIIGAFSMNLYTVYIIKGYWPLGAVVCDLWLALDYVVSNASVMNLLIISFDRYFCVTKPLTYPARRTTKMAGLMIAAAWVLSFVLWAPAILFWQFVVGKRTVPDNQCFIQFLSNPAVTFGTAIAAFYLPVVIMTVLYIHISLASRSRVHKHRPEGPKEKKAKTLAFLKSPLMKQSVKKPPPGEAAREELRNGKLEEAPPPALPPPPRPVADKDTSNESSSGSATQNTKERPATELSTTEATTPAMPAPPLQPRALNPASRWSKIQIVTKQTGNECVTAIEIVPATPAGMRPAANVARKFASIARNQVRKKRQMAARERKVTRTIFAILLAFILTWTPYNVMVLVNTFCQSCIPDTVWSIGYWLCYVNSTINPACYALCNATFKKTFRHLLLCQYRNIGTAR

Insulin receptor = Insulin receptor (Rattus norvegicus, UniProt P15127); type: cell membranes, Wistar, Liver, Membrane; also: in other assays of this panel Not Active means under 50% inhibition at 10 µM
[3] = DRUGMATRIX: Calcium Channel Type L, Benzothiazepine radioligand binding (ligand: [3H] Diltiazem); type: cell membranes, Rattus norvegicus, Wistar, Brain, Membrane; settings: Not Active = under 50% inhibition at 10 µM
Estrogen receptor = molecular target: T3, Estrogen receptor (Homo sapiens, UniProt P03372); settings: sf9; also: in other assays of this panel Not Active means under 50% inhibition at 10 µM
T3 sequence (P03372 whole entry): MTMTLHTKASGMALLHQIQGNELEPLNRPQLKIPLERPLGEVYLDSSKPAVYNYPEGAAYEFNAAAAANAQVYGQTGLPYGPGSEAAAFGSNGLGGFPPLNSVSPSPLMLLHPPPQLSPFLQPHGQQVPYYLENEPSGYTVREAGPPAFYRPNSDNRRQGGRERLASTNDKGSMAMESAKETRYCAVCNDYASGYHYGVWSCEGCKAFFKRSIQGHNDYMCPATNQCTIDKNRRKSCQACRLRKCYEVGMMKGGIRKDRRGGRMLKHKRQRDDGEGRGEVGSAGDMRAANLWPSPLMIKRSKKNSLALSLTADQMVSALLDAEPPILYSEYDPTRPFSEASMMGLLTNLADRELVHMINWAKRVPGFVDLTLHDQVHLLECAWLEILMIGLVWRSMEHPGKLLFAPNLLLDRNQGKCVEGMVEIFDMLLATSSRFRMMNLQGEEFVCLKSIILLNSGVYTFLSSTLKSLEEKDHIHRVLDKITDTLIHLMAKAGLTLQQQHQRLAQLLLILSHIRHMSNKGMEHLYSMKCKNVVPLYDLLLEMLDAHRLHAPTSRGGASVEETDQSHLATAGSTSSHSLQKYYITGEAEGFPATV

Chain of Insulin receptor (P15127 27-759 limits assumed): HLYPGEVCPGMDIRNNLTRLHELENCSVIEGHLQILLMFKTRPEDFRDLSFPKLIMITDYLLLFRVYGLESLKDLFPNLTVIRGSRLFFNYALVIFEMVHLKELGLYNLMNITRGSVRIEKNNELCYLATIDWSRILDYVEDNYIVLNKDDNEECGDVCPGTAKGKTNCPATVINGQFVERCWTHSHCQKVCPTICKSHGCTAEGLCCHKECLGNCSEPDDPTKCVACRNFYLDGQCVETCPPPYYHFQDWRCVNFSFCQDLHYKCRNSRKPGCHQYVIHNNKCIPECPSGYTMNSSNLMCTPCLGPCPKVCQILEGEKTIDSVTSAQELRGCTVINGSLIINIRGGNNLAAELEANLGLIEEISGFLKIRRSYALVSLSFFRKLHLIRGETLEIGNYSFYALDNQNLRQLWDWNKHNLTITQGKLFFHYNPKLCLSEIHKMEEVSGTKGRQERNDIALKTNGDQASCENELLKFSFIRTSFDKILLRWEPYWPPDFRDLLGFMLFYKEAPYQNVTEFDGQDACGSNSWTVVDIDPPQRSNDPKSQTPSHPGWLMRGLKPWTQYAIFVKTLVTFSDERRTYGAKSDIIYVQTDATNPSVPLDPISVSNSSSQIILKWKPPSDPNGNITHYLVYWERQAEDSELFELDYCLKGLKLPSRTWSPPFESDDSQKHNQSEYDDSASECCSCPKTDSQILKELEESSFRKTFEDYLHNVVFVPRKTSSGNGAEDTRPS
Chain of Insulin receptor (P15127 764-1383 limits assumed): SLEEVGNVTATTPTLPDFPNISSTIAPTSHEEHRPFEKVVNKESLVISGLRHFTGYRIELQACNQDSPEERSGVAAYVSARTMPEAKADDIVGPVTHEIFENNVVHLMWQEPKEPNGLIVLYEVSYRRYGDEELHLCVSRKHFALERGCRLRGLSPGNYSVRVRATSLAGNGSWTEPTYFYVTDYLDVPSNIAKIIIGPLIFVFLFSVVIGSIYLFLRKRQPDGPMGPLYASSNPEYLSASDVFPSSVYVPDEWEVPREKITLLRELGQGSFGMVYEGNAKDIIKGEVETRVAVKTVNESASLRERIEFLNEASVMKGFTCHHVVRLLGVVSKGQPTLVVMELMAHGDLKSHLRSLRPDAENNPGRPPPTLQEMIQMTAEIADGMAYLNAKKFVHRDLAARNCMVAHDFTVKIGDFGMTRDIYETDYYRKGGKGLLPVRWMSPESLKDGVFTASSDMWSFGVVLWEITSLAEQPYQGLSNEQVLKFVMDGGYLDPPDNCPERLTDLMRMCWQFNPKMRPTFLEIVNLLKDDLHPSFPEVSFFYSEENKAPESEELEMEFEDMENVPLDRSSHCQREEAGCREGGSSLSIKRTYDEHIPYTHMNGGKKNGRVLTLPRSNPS

Molecule	IC50 [1]	Ki [1]	IC50 (Cytochrome P450 1A2)	Ki (Cytochrome P450 1A2)	IC50 ([2]; cho-k1)	IC50 (Insulin receptor)	IC50 [3]	Ki [3]	IC50 (Estrogen receptor)	IC50 ([2]; read-out: IC50) [nM]	Ki ([2]; read-out: Ki) [nM]	IC50 ([3]; read-out: IC50) [nM]	Ki ([3]; read-out: Ki) [nM]	Ki ([2]; cho-k1)	Ki (Insulin receptor)	Ki (Estrogen receptor)
CC(C)Cc1ccc(C(C)C(=O)O)cc1 (centres undefined) [IBUPROFEN]	Not Active	Not Active	Not Active	Not Active	Not Active	Not Active	Not Active	Not Active	Not Active	–	–	–	–	–	–	–
COc1ccc2c(c1)c(CC(=O)O)c(C)n2C(=O)c1ccc(Cl)cc1 [INDOMETHACIN]	Not Active	Not Active	Not Active	Not Active	Not Active	Not Active	Not Active	Not Active	Not Active	–	–	–	–	–	–	–
CCc1c2c(nc3ccc(OC(=O)N4CCC(N5CCCCC5)CC4)cc13)-c1cc3c(c(=O)n1C2)COC(=O)[C@]3(O)CC [IRINOTECAN]	Not Active	Not Active	Not Active	Not Active	–	Not Active	Not Active	Not Active	Not Active	1560	217	–	–	–	–	–
CC(C(=O)O)c1cccc(C(=O)c2ccccc2)c1 (centres undefined) [KETOPROFEN]	Not Active	Not Active	Not Active	Not Active	Not Active	Not Active	Not Active	Not Active	Not Active	–	–	–	–	–	–	–
O=S(=O)([O-])CCS.[Na+] [MESNA]	Not Active	Not Active	Not Active	Not Active	Not Active	Not Active	Not Active	Not Active	Not Active	–	–	–	–	–	–	–
Cc1ncc([N+](=O)[O-])n1CCO [METRONIDAZOLE]	Not Active	Not Active	Not Active	Not Active	Not Active	Not Active	Not Active	Not Active	Not Active	–	–	–	–	–	–	–
CC(C)(C(=O)c1cccnc1)c1cccnc1 [METYRAPONE]	Not Active	Not Active	Not Active	Not Active	Not Active	Not Active	Not Active	Not Active	Not Active	–	–	–	–	–	–	–
Oc1ccc(OCc2ccccc2)cc1 [MONOBENZONE]	Not Active	Not Active	Not Active	Not Active	Not Active	Not Active	Not Active	Not Active	Not Active	–	–	–	–	–	–	–
CC(C)(Oc1ccc(C2CCCc3ccccc32)cc1)C(=O)O (centres undefined) [NAFENOPIN]	Not Active	Not Active	Not Active	Not Active	Not Active	Not Active	Not Active	Not Active	Not Active	–	–	–	–	–	–	–
CC(C)[C@H]1CC[C@H](C(=O)N[C@H](Cc2ccccc2)C(=O)O)CC1 [NATEGLINIDE]	Not Active	Not Active	Not Active	Not Active	Not Active	Not Active	Not Active	Not Active	Not Active	–	–	–	–	–	–	–
CCN[C@@H]1C[C@H](N)[C@@H](O[C@H]2OC(CN)=CC[C@H]2N)[C@H](O)[C@H]1O[C@H]1OC[C@](C)(O)[C@H](NC)[C@H]1O [NETILMICIN]	Not Active	Not Active	Not Active	Not Active	Not Active	Not Active	Not Active	Not Active	Not Active	–	–	–	–	–	–	–
CCOC(=O)C1=C(C)NC(C)=C(C(=O)OC)C1c1cccc([N+](=O)[O-])c1 (centres undefined) [NITRENDIPINE]	Not Active	Not Active	Not Active	Not Active	Not Active	Not Active	–	–	Not Active	–	–	1.56	1.39	–	–	–
COc1ccc2[nH]c([S+]([O-])Cc3ncc(C)c(OC)c3C)nc2c1 (centres undefined) [OMEPRAZOLE]	Not Active	Not Active	Not Active	Not Active	Not Active	Not Active	Not Active	Not Active	Not Active	–	–	–	–	–	–	–
Cc1nccn1CC1CCc2c(c3ccccc3n2C)C1=O (centres undefined) [ONDANSETRON]	Not Active	Not Active	Not Active	Not Active	Not Active	Not Active	Not Active	Not Active	Not Active	–	–	–	–	–	–	–
CCCCOc1ccc(OCCCN2CCOCC2)cc1 [PRAMOXINE]	Not Active	Not Active	Not Active	Not Active	Not Active	Not Active	Not Active	Not Active	Not Active	–	–	–	–	–	–	–
NC(=O)c1cnccn1 [PYRAZINAMIDE]	Not Active	Not Active	Not Active	Not Active	Not Active	Not Active	Not Active	Not Active	Not Active	–	–	–	–	–	–	–
Cc1cc2cc3c(C)cc(=O)oc3c(C)c2o1 [TRIOXSALEN]	Not Active	Not Active	Not Active	Not Active	Not Active	Not Active	Not Active	Not Active	Not Active	–	–	–	–	–	–	–
CCCC(CCC)C(=O)O [VALPROIC ACID]	Not Active	Not Active	Not Active	Not Active	Not Active	Not Active	Not Active	Not Active	Not Active	–	–	–	–	–	–	–
CCC1=C[C@@H]2CN(C1)Cc1c([nH]c3ccccc13)[C@@](C(=O)OC)(c1cc3c(cc1OC)N(C)[C@H]1[C@@](O)(C(=O)OC)[C@H](OC(C)=O)[C@]4(CC)C=CCN5CC[C@]31[C@@H]54)C2 [VINORELBINE]	Not Active	Not Active	Not Active	Not Active	Not Active	Not Active	Not Active	Not Active	Not Active	–	–	–	–	–	–	–
CADMIUM DICHLORIDE	Not Active	Not Active	Not Active	Not Active	Not Active	Not Active	Not Active	Not Active	Not Active	–	–	–	–	Not Active	Not Active	Not Active
